What is called IC50 is the midpoint of a concentration-inhibition curve. Low values mean greater potency in that assay, high ones weaker potency in that assay.

This is an account of results in US20250282799A1, “SUBSTITUTED PYRIDO[4,3-d]PYRIMIDINES AS KRAS MODULATORS” (Alterome Therapeutics, Inc., priority 2023, published 2025).

Each structure is given as a SMILES string.

The assay concerns KRAS G12V dependent lung adenocarcinoma cell line, NCI-H441. The experiment in a line: Cellular pERK (Thr202/Tyr204) FRET/HTRF assay. Type of assay: cell-based. The conditions noted are these: Homo sapiens, NCI-H441, cellular pERK (Thr202/Tyr204) HTRF, NCI-H441 cells. A digest of the protocol: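 NCI-H441, overnight plating → cpd 1 hr, 37 °C/5% CO2; DMSO neg ctrl. Lyse (phosphatase inhibitors), add donor/acceptor Abs, RT incubation, HTRF read. IC50 by curve fit.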
The molecule `[2H]C([2H])(F)Oc1c(F)c(F)cc2cc(N)cc(-c3ncc4c(N5CCOC[C@H]6[C@H](F)[C@H]65)nc(OC[C@@]56CCCN5C/C(=C\F)C6)nc4c3F)c12` [Example 162, 6,7-Difluoro-4-(8-fluoro-4-((1S,7S,8S)-8-fluoro-5-oxa-2-azabicyclo[5.1.0]octan-2-yl)-2-(((S,Z)-2-(fluoromethylene)tetrahydro-1H-pyrrolizin-7a(5H)-yl)methoxy)pyrido[4,3-d]pyrimidin-7-yl)-5-(fluoromethoxy-d2)naphthalen-2-amine] displayed an IC50 of less than 0.05 µM.

The molecule `[2H]C([2H])(Oc1nc(N2CCOC[C@H]3[C@H](F)[C@H]32)c2cc(F)c(-c3cc(N)cc(C4CC4)c3C(F)(F)F)c(F)c2n1)[C@@]12CCCN1C[C@H](F)C2` [Example 163, 3-cyclopropyl-5-(6,8-difluoro-4-((1S,7S,8S)-8-fluoro-5-oxa-2-azabicyclo[5.1.0]octan-2-yl)-2-(((2R,7aS)-2-fluorotetrahydro-1H-pyrrolizin-7a(5H)-yl)methoxy-d2)quinazolin-7-yl)-4-(trifluoromethyl)aniline] had a half-maximal inhibitory concentration (IC50) of 0.5 to 10 µM. Consider `[2H]C([2H])(Oc1nc(N2CCOC[C@@H]3[C@@H](F)[C@@H]32)c2cc(F)c(-c3cc(N)cc(C4CC4)c3C(F)(F)F)c(F)c2n1)[C@@]12CCCN1C[C@H](F)C2` [Example 164, 3-cyclopropyl-5-(6,8-difluoro-4-((1R,7R,8R)-8-fluoro-5-oxa-2-azabicyclo[5.1.0]octan-2-yl)-2-(((2R,7aS)-2-fluorotetrahydro-1H-pyrrolizin-7a(5H)-yl)methoxy-d2)quinazolin-7-yl)-4-(trifluoromethyl)aniline], for which the 50% inhibitory concentration (IC50) lay within 0.5 to 10 µM. Under `[2H]C([2H])(Oc1nc(N2CCOC[C@H]3[C@H](F)[C@H]32)c2cnc(-c3cc(N)cc(C4CC4)c3C(F)(F)F)c(F)c2n1)[C@@]12CCCN1C[C@H](F)C2` [Example 165, 3-cyclopropyl-5-(8-fluoro-4-((1S,7S,8S)-8-fluoro-5-oxa-2-azabicyclo[5.1.0]octan-2-yl)-2-(((2R,7aS)-2-fluorotetrahydro-1H-pyrrolizin-7a(5H)-yl)methoxy-d2)pyrido[4,3-d]pyrimidin-7-yl)-4-(trifluoromethyl)aniline] stands 0.05 to 0.5 µM. Under `C#Cc1c(F)ccc2cccc(-c3ncc4c(N5CCOC[C@H]6[C@H](F)[C@H]65)nc(OC[C@]56CC(=C)CN5CCC65CC5)nc4c3F)c12` [Example 166, (1S,7S,8S)-2-(7-(8-Ethynyl-7-fluoronaphthalen-1-yl)-8-fluoro-2-(((R)-6′-methylenetetrahydrospiro[cyclopropane-1,1′-pyrrolizin]-7a′(5′H)-yl)methoxy)pyrido[4,3-d]pyrimidin-4-yl)-8-fluoro-5-oxa-2-azabicyclo[5.1.0]octane] stands less than 0.05 µM; under `[2H]C([2H])(Oc1nc(N2CCOC[C@H]3[C@H](F)[C@H]32)c2cnc(-c3cc(N)c(F)c(C)c3C(F)(F)F)c(F)c2n1)[C@@]12CCCN1C[C@H](F)C2` [Example 167, 2-Fluoro-5-(8-fluoro-4-((1S,7S,8S)-8-fluoro-5-oxa-2-azabicyclo[5.1.0]octan-2-yl)-2-(((2R,7aS)-2-fluorotetrahydro-1H-pyrrolizin-7a(5H)-yl)methoxy-d2)pyrido[4,3-d]pyrimidin-7-yl)-3-methyl-4-(trifluoromethyl) aniline], less than 0.05 µM. The molecule `[2H]C([2H])(Oc1nc(N2CCOC[C@H]3[C@H](F)[C@H]32)c2cnc(-c3cc(N)cc(C)c3C(F)(F)F)c(F)c2n1)[C@@]12CCCN1C[C@H](F)C2` [Example 168, 3-(8-fluoro-4-((1S,7S,8S)-8-fluoro-5-oxa-2-azabicyclo[5.1.0]octan-2-yl)-2-(((2R,7aS)-2-fluorotetrahydro-1H-pyrrolizin-7a(5H)-yl)methoxy-d2)pyrido[4,3-d]pyrimidin-7-yl)-5-methyl-4-(trifluoromethyl)aniline] yielded a half-maximal inhibitory concentration (IC50) of 0.5 to 10 µM. The same measure for `[2H]C([2H])(Oc1nc(N2CCOC[C@H]3[C@H](F)[C@H]32)c2cc(F)c(-c3cc(N)cc(C)c3C(F)(F)F)c(F)c2n1)[C@@]12CCCN1C[C@H](F)C2` [Example 169, 3-(6,8-difluoro-4-((1S,7S,8S)-8-fluoro-5-oxa-2-azabicyclo[5.1.0]octan-2-yl)-2-(((2R,7aS)-2-fluorotetrahydro-1H-pyrrolizin-7a(5H)-yl)methoxy-d2)quinazolin-7-yl)-5-methyl-4-(trifluoromethyl)aniline]: 0.5 to 10 µM; for `C#Cc1c(F)ccc2cc(N)cc(-c3ncc4c(N5CCOC[C@H]6[C@H](F)[C@H]65)nc(OC[C@]56CC(=C)CN5CCC65CC5)nc4c3F)c12` [Example 171, 5-Ethynyl-6-fluoro-4-(8-fluoro-4-((1S,7S,8S)-8-fluoro-5-oxa-2-azabicyclo[5.1.0]octan-2-yl)-2-(((R)-6′-methylenetetrahydrospiro[cyclopropane-1,1′-pyrrolizin]-7a′(5′H)-yl)methoxy)pyrido[4,3-d]pyrimidin-7-yl)naphthalen-2-amine]: less than 0.05 µM. Molecule `[2H]C([2H])([2H])Oc1c(F)cc(F)c2cc(N)cc(-c3ncc4c(N5CCOC[C@H]6[C@H](F)[C@H]65)nc(OC[C@@]56CCCN5C/C(=C\F)C6)nc4c3F)c12` [Example 172, 6,8-difluoro-4-(8-fluoro-4-((1S,7S,8S)-8-fluoro-5-oxa-2-azabicyclo[5.1.0]octan-2-yl)-2-(((S,Z)-2-(fluoromethylene)tetrahydro-1H-pyrrolizin-7a(5H)-yl)methoxy)pyrido[4,3-d]pyrimidin-7-yl)-5-(methoxy-d3)naphthalen-2-amine] showed an IC50 of less than 0.05 µM. Under `[2H]C([2H])(F)Oc1c(F)cc(F)c2cc(N)cc(-c3ncc4c(N5CCCC[C@H]6[C@H](F)[C@H]65)nc(OC([2H])([2H])[C@@]56CCCN5C[C@H](F)C6)nc4c3F)c12` [Example 173, 6,8-difluoro-4-(8-fluoro-4-((1S,7R,8S)-8-fluoro-2-azabicyclo[5.1.0]octan-2-yl)-2-(((2R,7aS)-2-fluorotetrahydro-1H-pyrrolizin-7a(5H)-yl)methoxy-d2)pyrido[4,3-d]pyrimidin-7-yl)-5-(fluoromethoxy-d2)naphthalen-2-amine] stands less than 0.05 µM; under `[2H]C([2H])(Oc1nc(N2CC=CC[C@H]3[C@H](F)[C@H]32)c2cnc(-c3cc(N)cc4ccc(F)c(C#C)c34)c(F)c2n1)[C@@]12CCCN1C[C@H](F)C2` [Example 174, 5-Ethynyl-6-fluoro-4-(8-fluoro-4-((1S,7R,8S)-8-fluoro-2-azabicyclo[5.1.0]oct-4-en-2-yl)-2-(((2R,7aS)-2-fluorotetrahydro-1H-pyrrolizin-7a(5H)-yl)methoxy-d2)pyrido[4,3-d]pyrimidin-7-yl)naphthalen-2-amine], less than 0.05 µM; under `[2H]C([2H])(Oc1nc(N2CCOC[C@H]3[C@H](F)[C@H]32)c2cc(F)c(-c3nc(N)cc(C)c3C(F)(F)F)c(F)c2n1)[C@@]12CCCN1C[C@H](F)C2` [Example 175, 6-(6,8-difluoro-4-((1S,7S,8S)-8-fluoro-5-oxa-2-azabicyclo[5.1.0]octan-2-yl)-2-(((2R,7aS)-2-fluorotetrahydro-1H-pyrrolizin-7a(5H)-yl)methoxy-d2)quinazolin-7-yl)-4-methyl-5-(trifluoromethyl)pyridin-2-amine], 0.05 to 0.5 µM.

Molecule `[2H]C([2H])(Oc1nc(N2CCOC[C@@H]3[C@@H](F)[C@@H]32)c2cc(F)c(-c3nc(N)cc(C)c3C(F)(F)F)c(F)c2n1)[C@@]12CCCN1C[C@H](F)C2` [Example 176, 6-(6,8-difluoro-4-((1R,7R,8R)-8-fluoro-5-oxa-2-azabicyclo[5.1.0]octan-2-yl)-2-(((2R,7aS)-2-fluorotetrahydro-1H-pyrrolizin-7a(5H)-yl)methoxy-d2)quinazolin-7-yl)-4-methyl-5-(trifluoromethyl)pyridin-2-amine] gave a half-inhibitory concentration (IC50) of 0.5 to 10 µM. The same measure for `[2H]C([2H])(Oc1nc(N2CCOC[C@H]3[C@H](F)[C@H]32)c2cc(F)c(-c3cc(N)c(F)c(C)c3C(F)(F)F)c(F)c2n1)[C@@]12CCCN1C[C@H](F)C2` [Example 177, 5-(6,8-difluoro-4-((1S,7S,8S)-8-fluoro-5-oxa-2-azabicyclo[5.1.0]octan-2-yl)-2-(((2R,7aS)-2-fluorotetrahydro-1H-pyrrolizin-7a(5H)-yl)methoxy-d2)quinazolin-7-yl)-2-fluoro-3-methyl-4-(trifluoromethyl)aniline]: less than 0.05 µM.

In the case of `[2H]C([2H])(Oc1nc(N2CCOC[C@@H]3[C@@H](F)[C@@H]32)c2cc(F)c(-c3cc(N)c(F)c(C)c3C(F)(F)F)c(F)c2n1)[C@@]12CCCN1C[C@H](F)C2` [Example 178, 5-(6,8-difluoro-4-((1R,7R,8R)-8-fluoro-5-oxa-2-azabicyclo[5.1.0]octan-2-yl)-2-(((2R,7aS)-2-fluorotetrahydro-1H-pyrrolizin-7a(5H)-yl)methoxy-d2)quinazolin-7-yl)-2-fluoro-3-methyl-4-(trifluoromethyl)aniline], the IC50 fell in the range of 0.5 to 10 µM.

Molecule `[2H]C([2H])(Oc1nc(N2CCOC[C@H]3[C@H](F)[C@H]32)c2cc(Cl)c(-c3cc(N)cc(C)c3C(F)(F)F)c(F)c2n1)[C@@]12CCCN1C[C@H](F)C2` [Example 179, 3-(6-chloro-8-fluoro-4-((1S,7S,8S)-8-fluoro-5-oxa-2-azabicyclo[5.1.0]octan-2-yl)-2-(((2R,7aS)-2-fluorotetrahydro-1H-pyrrolizin-7a(5H)-yl)methoxy-d2)quinazolin-7-yl)-5-methyl-4-(trifluoromethyl)aniline] gave a half-maximal inhibitory concentration (IC50) of 0.5 to 10 µM.

The molecule `[2H]C([2H])(Oc1nc(N2CCOC[C@H]3[C@H](F)[C@H]32)c2ccc(-c3cc(N)cc(C)c3C(F)(F)F)c(F)c2n1)[C@@]12CCCN1C[C@H](F)C2` [Example 180, 3-(8-fluoro-4-((1S,7S,8S)-8-fluoro-5-oxa-2-azabicyclo[5.1.0]octan-2-yl)-2-(((2R,7aS)-2-fluorotetrahydro-1H-pyrrolizin-7a(5H)-yl)methoxy-d2)quinazolin-7-yl)-5-methyl-4-(trifluoromethyl)aniline] had an IC50 of 0.5 to 10 µM.
